From PubChem BioAssay AID1224898

Tested on: Trichuris muris adults ex vivo, WormWatcher motility, 24 h
Assay: motility loss in adult Trichuris muris, dose response, whole organism, ex vivo, WormWatcher (AID 1224898)

Row | Compound | EC50 [µM]
1 | O=C1COCc2cc(-c3cccnc3)ccc2N1CC1CCCCC1 | 52
2 | O=C1COCc2cc(-c3cccnc3)ccc2N1Cc1ccc(C(F)(F)F)cc1 | 26
3 | Cc1ccc(CN2C(=O)COCc3cc(-c4cccnc4)ccc32)cc1 | 57

Further compounds by falling EC50, results first:

Row | EC50 [µM] | Compound
4 | 50 | Cc1ccc(CN2C(=O)COCc3cc(-c4ccncc4)ccc32)cc1
5 | 35 | Cc1ccc(CN2C(=O)COCc3cc(Br)ccc32)cc1
